# Measured values taken from patent publication US20250302748A1, “METHOD FOR ENHANCING THE EFFICIENCY OF DRUG LOADING INTO EXTRACELLULAR VESICLES AND MEDICINAL PRODUCTS THEREOF” (Shine-On BioMedical CO., LTD., priority 2024, published 2025).
# Where a name gives a salt, the structure may show the parent alone.
# Assays:
# [1] = tested on: breast cancer cells (MDA-MB-231); assay: Orthotopic breast cancer animal model, IVIS luminescence; assay type: in vivo, mice; details: day 49, two weeks after final administration; tail vein injections for six weeks; luminescence converted into tumor volume
# Description: Referring to FIG. 9C, a breast cancer animal model was applied to evaluate the efficacy and biocompatibility of exosome 10 loaded with the target drug. In this experiment, the breast cancer animal model was constructed by injecting the breast cancer cells (MDA-MB-231) orthotopically into the mammary fat pad of the mice and then culturing the breast cancer cells into tumor. The mice were divided into drug treatment groups 1 to 3 and control group 1. The breast cancer animal model in drug treatment groups 1 to 3 were received the target drug directly (Dox-HCl), the liposome injection loaded with the target drug Dox-HCl (Dox@Lipo), and the exosomes 10 loaded with the target drug Dox-HCl (Dox@EXO) respectively; the control group 1 is the group treated with a placebo (PBS) (Ctrl).
# Each group (groups 1-3 and control group 1) of the breast cancer animal model described above was received tail vein injections continuously for six weeks administration following the injection of breast cancer cells (MDA-MB-231). Tumor development was monitored and imaged using an in vivo imaging system (IVIS Imaging System), which measured tumor progression based on a luminescence signal of the tumor.
# [2] = Safety study with serum biochemical analysis after third weekly administration; assay type: in vivo, Immunocompetent mice
# Description: Furthermore, to confirm that exosome 10 retains its biocompatibility after loading the target drug and is safe for in vivo use, please refer to Table 5, an animal model is applied to evaluate the safety. Immunocompetent mice were divided into control group (Control), vehicle control group (Vehicle control), drug treatment group (Dox), and exosome treatment groups 1-3 (Dox@EXO 1-3). The groups above were weekly administered Lactated Ringer's solution, the exosomes 10, the target drug (Doxorubicin, Dox-HCl), and the exosomes 10 loaded with the target drug Dox-HCl (Dox@EXO) in concentrations of 2 mg/kg, 6 mg/kg, and 12 mg/kg respectively. After receiving the third administration, blood samples were collected for serum biochemical analysis to monitor organ function.
# [3] = 12 mg/kg weekly, after third administration, serum
smiles,measurement,setting,value
"COc1cccc2c1C(=O)c1c(O)c3c(c(O)c1C2=O)C[C@@](O)(C(=O)CO)C[C@@H]3O[C@H]1C[C@H](N)[C@H](O)[C@H](C)O1 [Dox-HCl, Doxorubicin hydrochloride]",Inhibition rate of tumor growth,[1],73.8%
same,ALB (Albumin),[2]; [3],2.68 g/dL
same,ALP (Alkaline Phosphatase),[2]; [3],182.52 U/L
same,ALT,[2]; [3],29.52 U/L
same,AMY (Amylase),[2]; [3],3424.8 U/L
same,AST,[2]; [3],76.88 U/L
same,CK (Creatine kinase),[2]; [3],236.06 U/L
same,LDH (Lactate Dehydrogenase),[2]; [3],648.28 U/L
same,Difference in serum biochemical parameters versus control group (One-way ANOVA),"[2]; Dox 12 mg/kg, Dox@EXO 2, 6 and 12 mg/kg",significant differences in liver function markers such as albumin (ALB) and alkaline phosphatase (ALP)
